The assay concerns the target 5-hydroxytryptamine receptor 6 (Homo sapiens, UniProt P50406). Briefly: Binding affinity for human 5-hydroxytryptamine 6 receptor.

Sequence of 5-hydroxytryptamine receptor 6 (P50406 whole entry): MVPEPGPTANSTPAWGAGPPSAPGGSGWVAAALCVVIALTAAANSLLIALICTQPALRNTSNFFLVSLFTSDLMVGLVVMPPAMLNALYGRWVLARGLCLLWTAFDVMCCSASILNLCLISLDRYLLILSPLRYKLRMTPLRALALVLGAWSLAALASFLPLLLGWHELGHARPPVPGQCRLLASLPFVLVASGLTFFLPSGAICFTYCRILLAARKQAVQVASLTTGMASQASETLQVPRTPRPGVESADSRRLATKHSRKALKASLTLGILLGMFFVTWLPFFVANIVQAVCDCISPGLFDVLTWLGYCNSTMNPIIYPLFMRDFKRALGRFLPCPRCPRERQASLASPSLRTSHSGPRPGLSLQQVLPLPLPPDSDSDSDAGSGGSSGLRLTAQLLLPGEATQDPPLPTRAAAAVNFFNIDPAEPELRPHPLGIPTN

Usually Ki stands for a measure of affinity in units of concentration, obtained from inhibition or displacement. The low end stands for a stronger hold on the target, the high end for a looser hold on the target. Molecule `NCCc1c[nH]c2ccc(NS(=O)(=O)c3ccc4c(Cl)cccc4c3)cc12` had a Ki of 0.2 nM. `COc1ccc2[nH]c(-c3ccccc3)c(CCN(C)C)c2c1` showed an inhibition constant (Ki) of 50.1 nM. `Nc1ccc(S(=O)(=O)n2c3c(c4ccccc42)CCCC3)cc1`: affinity was put at a Ki of 31.6 nM. Then `NCc1cn(S(=O)(=O)c2ccccc2)c2ccccc12`, with 3.16 nM; and `Cc1ccc(S(=O)(=O)n2cc3c4c(cccc42)[C@H](O)[C@@H](N(C)C)C3)cc1`, with 7.94 nM; and `Cc1c(S(=O)(=O)Nc2ccc3ncc(N4CCN(C)CC4)cc3c2)sc2ccc(Cl)cc12`, with 79.4 nM. Then `CCOC(=O)c1[nH]c2ccccc2c1CCN`, with 20 nM; and `O=S(=O)(c1cccc2ccccc12)n1ccc2ccc(C3=CCN4CCCC4C3)cc21` (stereo unspecified), with 1.26 nM; and `O=S(=O)(Nc1ccc2ccn(CCN3CCCC3)c2c1)c1c(Cl)nc2sccn12`, with 50.1 nM. In the case of `Nc1ccc(S(=O)(=O)Nc2cccc(N)c2)cc1` it was 631 nM; in that of `CN(C)CCc1cn(S(=O)(=O)c2ccccc2)c2ccccc12`, 3.16 nM; in that of `Nc1ccc(S(=O)(=O)Nc2cc(N)nc(Br)c2)cc1`, 50.1 nM. On to `CC[N+](C)(CC)CCc1cn(S(=O)(=O)c2ccc(NC(C)=O)cc2)c2ccc(OC)cc12`, for which the Ki is 251 nM. In the case of `Nc1ccc(S(=O)(=O)Nc2cccc3[nH]ccc23)cc1`, the Ki is 63.1 nM. In the case of `Nc1ccc(S(=O)(=O)Nc2ccc3cc[nH]c3c2)cc1` it was 1260 nM; in that of `CSc1nc2ccccn2c(=N)c1S(=O)(=O)c1ccccc1`, 3.98 nM. `O=S(=O)(c1ccc2ccccc2c1)n1ccc2ccc(N3CCN4C=CCC4C3)cc21` (stereo unspecified) had a Ki of 0.2 nM. Then `NCc1cn(S(=O)(=O)c2ccc(N)cc2)c2ccccc12`, with 6.31 nM.

Turning to `Cc1cn(S(=O)(=O)c2ccc(N)cc2)c2ccccc12`, affinity was put at a Ki of 12.6 nM. In the case of `CNc1cc(NS(=O)(=O)c2ccc(N)cc2)cc(NC)n1` it was 15.8 nM; in that of `COc1ccc2c(c1)c(CCN)cn2S(=O)(=O)c1cccc2ccccc12`, 0.794 nM; in that of `CN(C)CCn1ccc2cc(NS(=O)(=O)c3c(Cl)nc4sccn34)ccc21`, 2 nM. Then `COc1cccc(-c2noc(-c3[nH]c4ccccc4c3CCN)n2)c1`, with 1.26 nM. In the case of `O=S(=O)(Nc1ccc2c(ccn2CCCN2CCCCC2)c1)c1c(Cl)nc2sccn12` it was 1000 nM; in that of `CON1CCN(c2ccc(S(=O)(=O)c3cccc4ccccc34)cc2)CC1`, 0.126 nM; in that of `COc1cccc2c(CCN)cn(S(=O)(=O)c3ccc4ccccc4c3)c12`, 5.01 nM. Consider `O=S(=O)(c1ccccc1)c1cc2c(N3CCNCC3)cccc2[nH]1`, for which the inhibition constant Ki is 0.126 nM.

On to `COc1ccc2c(c1)c(CCN(C)C)cn2S(=O)(=O)c1ccccc1`, for which affinity was put at a Ki of 2.51 nM. In the case of `Nc1ccc(S(=O)(=O)c2cc(Br)nc(Br)c2)cc1` it was 50.1 nM; in that of `COc1ccc(NS(=O)(=O)c2cccc(I)c2)cc1N1CCNCC1`, 0.794 nM; in that of `COc1cc(N)cc(NS(=O)(=O)c2ccc(N)cc2)c1`, 39.8 nM.

These data come from ChEMBL document CHEMBL1140284, “A three-dimensional pharmacophore model for 5-hydroxytryptamine6 (5-HT6) receptor antagonists” (J Med Chem, 2005).
